From ChEMBL document CHEMBL1129707, “Identification and biological activity of novel peptidomimetic gastrin/CCK-B receptor agonists” (Bioorg Med Chem Lett, 1996) come the findings set out here.

The target of assay [1] is T1, Cholecystokinin receptor type A (Rattus norvegicus, UniProt P30551).
T1 sequence (P30551 whole entry): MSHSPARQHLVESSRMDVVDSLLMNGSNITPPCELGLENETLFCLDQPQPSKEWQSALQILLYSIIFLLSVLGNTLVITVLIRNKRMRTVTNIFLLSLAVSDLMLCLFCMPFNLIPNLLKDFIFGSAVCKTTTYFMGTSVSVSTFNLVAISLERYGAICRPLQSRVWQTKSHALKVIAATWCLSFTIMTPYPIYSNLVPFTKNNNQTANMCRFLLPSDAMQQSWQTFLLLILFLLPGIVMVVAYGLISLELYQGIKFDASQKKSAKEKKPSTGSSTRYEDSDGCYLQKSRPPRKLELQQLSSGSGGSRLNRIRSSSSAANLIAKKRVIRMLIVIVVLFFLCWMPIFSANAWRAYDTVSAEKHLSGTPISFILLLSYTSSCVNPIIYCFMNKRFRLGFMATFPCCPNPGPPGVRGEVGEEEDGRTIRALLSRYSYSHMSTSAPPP
The experiment in a line: Tested for displacement of [3H]-L-364,718 from Cholecystokinin type A receptor in rat pancreas. For orientation: In a radioligand displacement assay an active substance lowers the binding of a labelled ligand.

The target in assay [2] is T2, Gastrin/cholecystokinin type B receptor (Rattus norvegicus, UniProt P30553).
T2 sequence (P30553 whole entry): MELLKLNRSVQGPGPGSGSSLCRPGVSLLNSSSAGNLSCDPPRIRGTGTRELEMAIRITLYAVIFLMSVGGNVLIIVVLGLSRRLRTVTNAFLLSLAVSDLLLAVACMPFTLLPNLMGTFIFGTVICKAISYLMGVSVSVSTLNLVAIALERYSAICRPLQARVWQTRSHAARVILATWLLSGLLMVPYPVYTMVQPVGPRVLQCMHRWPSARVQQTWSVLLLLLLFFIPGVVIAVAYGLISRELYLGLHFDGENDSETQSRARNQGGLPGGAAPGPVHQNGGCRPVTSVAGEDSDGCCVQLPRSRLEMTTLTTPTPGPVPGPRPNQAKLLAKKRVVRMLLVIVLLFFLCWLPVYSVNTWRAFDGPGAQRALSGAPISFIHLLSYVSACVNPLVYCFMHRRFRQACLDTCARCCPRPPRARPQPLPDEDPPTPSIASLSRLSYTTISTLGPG
The experiment in a line: Tested for displacement of [125I]-CCK-8 from Gastrin/Cholecystokinin type B receptor in rat brain. The assay is classed as tissue-based.

A value given as a limit tells only on which side of the number the result lay.

In general, IC50 refers to the midpoint of a concentration-inhibition curve. A high value points to lower potency. `CCCC[C@H](NC(=O)Cc1c[nH]c2ccccc12)C(=O)N(CC(=O)N1CCC[C@H]1C(=O)O)CC1CCCCC1`: the IC50 in assay [1] is > 10000 nM; in assay [2] it was 30.2 nM.

The molecule `CCCC[C@H](NC(=O)Cc1c[nH]c2ccccc12)C(=O)N(CCc1ccccc1)CC(=O)O` came in with an IC50 in assay [2] of 165 nM.

As for `O=C(Cc1c[nH]c2ccccc12)N[C@@H](Cc1ccccc1)C(=O)N(CCC1CCCCC1)CC(=O)N1CCC[C@H]1C(=O)O`, the IC50 is > 10000 nM in assay [1] and 0.94 nM in assay [2].

The molecule `CCCC[C@H](NC(=O)Cc1c[nH]c2ccccc12)C(=O)N(CCc1ccccc1)CC(=O)N1CCC[C@H]1C(=O)O` registered an IC50 in assay [2] of 34 nM.

Take `CCCC[C@H](NC(=O)Cc1c[nH]c2ccccc12)C(=O)N(CCC1CCCCC1)CC(=O)N1CCCC1`: the results for the 50% inhibitory concentration (IC50) in assay [1] and in assay [2] were > 10000 nM and 146 nM, respectively.

Turning to `CCCC[C@H](NC(=O)Cc1c[nH]c2ccccc12)C(=O)N(CCc1ccccc1)CC(=O)N1CCCC1C(=O)O` (stereo partly specified), the half-maximal inhibitory concentration (IC50) in assay [2] came to 300 nM.

`CCCC[C@H](NC(=O)Cc1c[nH]c2ccccc12)C(=O)N(CCC1CCCCC1)CC(=O)O`: the IC50 in assay [1] was > 10000 nM; in assay [2] it was 370 nM.

Turning to `CCC[C@@H]1CCN(C(=O)[C@@H]2Cc3c[nH]c4cccc(c34)CC(=O)N2)[C@@H]1C(=O)N[C@@H](CC(=O)O)C(=O)N[C@@H](Cc1ccccc1)C(N)=O`, the IC50 in assay [2] is 0.7 nM.

In assay [2], `CC(C)C[C@@H](C(=O)N[C@@H](CC(=O)O)C(=O)N[C@@H](Cc1ccccc1)C(N)=O)N1CC(=O)N[C@H](Cc2c[nH]c3ccccc23)C1=O` displayed an IC50 of 37.7 nM.

In the case of `CC(C)(C)OC(=O)N1c2ccccc2C[C@@H]1C(=O)N1[C@@H](C(=O)N2Cc3ccccc3C[C@@H]2C(=O)N2CCC[C@@H]2C(=O)O)CC[C@H]1c1ccccc1`, the IC50 in assay [1] was > 10000 nM; in assay [2], 36 nM.

In the case of `CC(C)(C)OC(=O)N1c2ccccc2C[C@@H]1C(=O)N1[C@@H](C(=O)N2Cc3ccccc3C[C@@H]2C(=O)NCC(=O)O)CC[C@H]1c1ccccc1`, the half-maximal inhibitory concentration (IC50) is > 10000 nM in assay [1] and 27 nM in assay [2].

For the molecule `CCCC[C@H](NC(=O)Cc1c[nH]c2ccccc12)C(=O)N(CCC1CCCCC1)CC(=O)N1CCC[C@H]1C(=O)O`, the values for the IC50 in assay [1] and in assay [2] were > 10000 nM and 2.3 nM, respectively.

Take `CC(C)(C)OC(=O)N1c2ccccc2C[C@@H]1C(=O)N1[C@@H](C(=O)N2CCc3ccccc3C2)CC[C@H]1c1ccccc1`: the IC50 is > 10000 nM in assay [1] and 52 nM in assay [2].

In the case of `CC(C)(C)OC(=O)N1c2ccccc2C[C@@H]1C(=O)N1[C@@H](C(=O)N2Cc3ccccc3C[C@@H]2CC(=O)O)CC[C@H]1c1ccccc1`, the IC50 in assay [1] is > 10000 nM; in assay [2] it was 35 nM.

`CC(C)(C)OC(=O)N1c2ccccc2C[C@@H]1C(=O)N1[C@@H](C(=O)N2Cc3ccccc3C[C@@H]2C(=O)N2CCCC2C(=O)O)CC[C@H]1c1ccccc1` (stereo partly specified): the values for the 50% inhibitory concentration (IC50) in assay [1] and in assay [2] were > 10000 nM and 0.25 nM, respectively.

Take `CC(C)(C)OC(=O)N1c2ccccc2C[C@@H]1C(=O)N1[C@@H](C(=O)N2Cc3ccccc3C[C@@H]2C(N)=O)CC[C@H]1c1ccccc1`: the 50% inhibitory concentration (IC50) was > 10000 nM in assay [1] and 170 nM in assay [2].

Regarding `CC(C)(C)OC(=O)N1c2ccccc2C[C@@H]1C(=O)N1[C@@H](C(=O)N2Cc3ccccc3C[C@@H]2C(=O)O)CC[C@H]1c1ccccc1`, the IC50 was > 10000 nM in assay [1] and 39 nM in assay [2].

Regarding `O=C(Cc1c[nH]c2ccccc12)N[C@@H](CCc1ccccc1)C(=O)N(CCC1CCCCC1)CC(=O)N1CCC[C@H]1C(=O)O`, the IC50 in assay [1] is > 10000 nM; in assay [2], 17 nM.
